“And” between values parts separate entries of the source, which are not always exact repeats. Identical values can stand only once.
What was measured:
[1] = target: T1, human whole blood or erythrocyte (erythhHb) (Homo sapiens, UniProt P68871+P69905); assay: Effect of RSR-13 on oxygen affinity of human whole blood (multiple-point tonometer); assay type: biochemical; conditions: human blood hct 30%
T1 construct: from tissue; host or cells: human whole blood (hct ~30%)
Procedure: (§1) The effect of RSR-13 on the oxygen affinity of erythswHb and erythhHb, and HBOC-1 was determined using multiple-point tonometer. RSR-13 (1, 2 or 5 mM) was incubated with blood from swine or human (hct ˜30%) or HBOC-1 (13.4 g/dL) for 30 minutes. The Hb-compound mixture was then further incubated in IL 237 tonometers (Instrumentation Laboratories, Inc. Lexington, Mass.) for 5 minutes at 37° C. to equilibrate at oxygen tensions of 6 mmHg or 20 mmHg or 40 mmHg or 60 mmHg. Following, the sample is aspirated into an IL 1420 Automated Blood Gas Analyzer and an IL 682 Co-oximeter (Instrumentation Laboratories) or ABL 700 Blood Gas Analyzer (Radiometer, Westlake, Ohio) to determine the pH, pCO2, pO2, and Hb oxygen saturation values (SO2). The measured values of pO2 and SO2 were then subjected to a non-linear regression analysis using the program Scientist to estimate the P50 and Hill coefficient values (cooperativity of oxygen binding; n50).

[2] = target: T2, swine whole blood or erythrocyte (erythswHb) (Sus scrofa, UniProt P01965+P02067); assay: Effect of RSR-13 on oxygen affinity of swine whole blood (multiple-point tonometer); assay type: biochemical
T2 construct: from tissue; host or cells: swine whole blood (hct 30%, 20% or 15%)
Procedure: as §1, with “RSR-13 (1, 2 or 5 mM) was incubated with blood from swine or human (hct ˜30%) or HBOC-1 (13.4 g/dL) for 30 minutes.” left out

HBOC-1 (13.4 g/dL) = target: T3, HBOC-1 (13.4 g/dL) (Bos taurus, UniProt P01966+P02070); assay: Effect of RSR-13 on oxygen affinity of HBOC-1 (multiple-point tonometer); assay type: biochemical, bovine
T3 construct: is a highly purified bovine Hb that is crosslinked with gluteraldehyde; purchased BioPure Inc
T3 sequence (P01966 2-142 limits assumed): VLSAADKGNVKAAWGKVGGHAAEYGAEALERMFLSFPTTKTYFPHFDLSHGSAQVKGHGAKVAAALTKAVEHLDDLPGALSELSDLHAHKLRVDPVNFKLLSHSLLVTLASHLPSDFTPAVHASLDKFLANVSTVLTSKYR
T3 sequence (P02070 whole entry): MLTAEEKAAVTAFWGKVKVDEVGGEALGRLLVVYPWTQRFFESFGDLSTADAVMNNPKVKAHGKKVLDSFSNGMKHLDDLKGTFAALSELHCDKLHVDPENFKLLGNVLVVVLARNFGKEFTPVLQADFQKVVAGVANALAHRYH
Procedure: as §1

[3] = target: T4, erythswHb/HBOC-1 solution mixture (UniProt P01965+P01966+P02067+P02070); assay: Effect of RSR-13 on oxygen affinity of erythswHb/HBOC-1 solution mixtures; assay type: biochemical, swine; conditions: 2 mM RSR-13
T4 construct: composed of either 15% or 20% hct whole blood in 13.4 g/dL of HBOC-1; is a highly purified bovine Hb that is crosslinked with gluteraldehyde; tissue BioPure Inc (HBOC-1 part); host or cells: swine whole blood (hct 15 or 20%) mixed with HBOC-1 (13.4 g/dL) at 75:25 or 50:50 by volume
T4 sequence (P01965 whole entry): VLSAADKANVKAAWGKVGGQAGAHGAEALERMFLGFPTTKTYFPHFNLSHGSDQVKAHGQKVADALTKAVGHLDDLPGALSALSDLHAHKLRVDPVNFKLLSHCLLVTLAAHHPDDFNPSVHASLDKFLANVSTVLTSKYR
T4 sequence (P02067 whole entry): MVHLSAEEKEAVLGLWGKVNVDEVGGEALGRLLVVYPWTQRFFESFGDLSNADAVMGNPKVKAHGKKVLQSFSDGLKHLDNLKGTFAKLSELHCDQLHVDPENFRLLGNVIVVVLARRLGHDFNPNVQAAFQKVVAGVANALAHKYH
T4 sequence (P01966 2-142 limits assumed): as the sequence (P01966 2-142 limits assumed) above
T4 sequence (P02070 whole entry): as the sequence (P02070 whole entry) above
Procedure: as §1
RSR-13 (2 mM) was incubated with erythswHb (hct of 15 or 20%)/HBOC-1 (13.4 g/dL) solution mixture in a volume ratio of 75:25 and 50:50 for 30 minutes. The Hb-compound mixture was then analyzed for their P50 and Hill coefficient values as described above.

[4] = target: T5, NO derivative of cell free human Hb (NOhHb) (Homo sapiens, UniProt P68871+P69905); assay: Effect of RSR-13 on Soret absorbance of NO derivative of cell free human Hb; assay type: biochemical
T5 construct: Human hemoglobin (hHb) or swine Hb (swHb) was purified from discarded blood samples; from tissue; host or cells: purified in house from discarded human blood samples
T5 sequence (P69905 2-142 limits assumed): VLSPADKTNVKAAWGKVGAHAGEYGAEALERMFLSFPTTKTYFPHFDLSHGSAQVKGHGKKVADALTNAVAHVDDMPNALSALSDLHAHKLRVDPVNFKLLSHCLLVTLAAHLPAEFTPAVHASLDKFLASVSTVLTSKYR
T5 sequence (P68871 2-147 limits assumed): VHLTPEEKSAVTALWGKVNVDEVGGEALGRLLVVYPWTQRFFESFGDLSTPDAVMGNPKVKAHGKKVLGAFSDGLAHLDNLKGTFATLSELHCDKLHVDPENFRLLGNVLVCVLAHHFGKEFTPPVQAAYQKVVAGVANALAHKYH
Procedure: (§2) Effect of RSR-13 on the absorption spectra in the soret region of the nitrosylated derivatives of cell free Hb from human and swine, and HBOC-1 were recorded at 37° C. using HP Agilant 8453 Spectrophotometer using 1 cm path length cuvette. Solid Na dithionite (2 mg/mL) was added to the Hb to make the fully deoxygenated Hb, followed by addition of solid diethylamine NONOate (1.3 mg/mL) to make the NOhHb or NOswHb, or NOHBOC-1 derivatives. RSR-13 (20 uM-800 uM) were added to 65 ug of the NO derivatives and the spectrum monitored in the soret region at 417 nm.

[5] = target: T6, NO derivative of cell free swine Hb (NOswHb) (Sus scrofa, UniProt P01965+P02067); assay: Effect of RSR-13 on Soret absorbance of NO derivative of cell free swine Hb; assay type: biochemical
T6 construct: Human hemoglobin (hHb) or swine Hb (swHb) was purified from discarded blood samples; from tissue; host or cells: purified in house from discarded swine blood samples
T6 sequence (P01965 whole entry): as the sequence (P01965 whole entry) above
T6 sequence (P02067 2-147 limits assumed): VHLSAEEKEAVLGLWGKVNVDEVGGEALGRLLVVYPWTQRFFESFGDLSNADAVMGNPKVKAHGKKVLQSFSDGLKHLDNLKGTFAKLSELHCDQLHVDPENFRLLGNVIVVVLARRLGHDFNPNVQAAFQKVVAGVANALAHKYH
Procedure: as §2

[6] = target: T7, NO derivative of HBOC-1 (NOHBOC-1) (Bos taurus, UniProt P01966+P02070); assay: Effect of RSR-13 on Soret absorbance of NO derivative of HBOC-1; assay type: biochemical, bovine
T7 construct: is a highly purified bovine Hb that is crosslinked with gluteraldehyde; purchased BioPure Inc
T7 sequence (P01966 2-142 limits assumed): as the sequence (P01966 2-142 limits assumed) above
T7 sequence (P02070 whole entry): as the sequence (P02070 whole entry) above
Procedure: as §2

[7] = target: T8, COHb in swine whole blood (hct of 30%) (Sus scrofa, UniProt P01965+P02067); assay: Effect of RSR-13 on COHb levels of swine blood; assay type: biochemical; conditions: 2 mM RSR-13, after 30 minutes
T8 construct: from tissue; host or cells: swine whole blood (hct 30%, 20% or 15%)
T8 sequence (P01965 whole entry): as the sequence (P01965 whole entry) above
T8 sequence (P02067 2-147 limits assumed): as the sequence (P02067 2-147 limits assumed) above
Procedure: (§3) To determine whether RSR-13 will reduce COHb levels in swine blood or HBOC-1, we incubated HBOC-1 (13.4 g/dL) that has been exposed to CO to form ˜51% COHb, and swine whole blood (hct of 30%) that has been exposed to CO to form ˜52 or 10% COHb concentrations with 2 mM RSR-13. RSR-13 was able to reduce the amount of COHb by about 16% in the swine blood in the experiment starting with either 10% or 52% COHb level, and about 14% in the HBOC-1.

[8] = target: T9, COHb in HBOC-1 (13.4 g/dL) (Bos taurus, UniProt P01966+P02070); assay: Effect of RSR-13 on COHb levels of HBOC-1; assay type: biochemical, bovine; conditions: HBOC-1 13.4 g/dL exposed to CO to ~51% COHb (control 51.1), 2 mM RSR-13, after 30 minutes
T9 construct: is a highly purified bovine Hb that is crosslinked with gluteraldehyde; purchased BioPure Inc
T9 sequence (P01966 2-142 limits assumed): as the sequence (P01966 2-142 limits assumed) above
T9 sequence (P02070 whole entry): as the sequence (P02070 whole entry) above
Procedure: as §3

whole blood = target: T10, whole blood (Homo sapiens, UniProt P68871+P69905); conditions: Phase I studies, doses of 75-100 mg/kg; cited from earlier work
T10 construct: host or cells: whole blood of dosed subjects
T10 sequence (P69905 2-142 limits assumed): as the sequence (P69905 2-142 limits assumed) above
T10 sequence (P68871 2-147 limits assumed): as the sequence (P68871 2-147 limits assumed) above

[9] = Oxygen affinity of HBOC-1 itself, without RSR-13 (multiple-point tonometer); assay type: biochemical, bovine; conditions: HBOC-1 13.4 g/dL alone, 0 RSR-13
Procedure: as §1

[10] = swine blood (100%) hct 15%, 2 mM RSR-13
[11] = swine blood (100%) hct 20%, 2 mM RSR-13
[12] = swine blood hct 30%, 1 mM RSR-13
[13] = swine blood hct 30%, 2 mM RSR-13
[14] = swine blood hct 30%, 5 mM RSR-13
[15] = Blood/HBOC (50:50), swine blood hct 15%
[16] = Blood/HBOC (50:50), swine blood hct 20%
[17] = Blood/HBOC (75:25), swine blood hct 15%
[18] = Blood/HBOC (75:25), swine blood hct 20%

Cc1cc(C)cc(NC(=O)Cc2ccc(OC(C)(C)C(=O)O)cc2)c1 [RSR-13, 2-[4-[2-[(3,5-dimethylphenyl)amino]-2-oxoethyl]phenoxy]-2-methylpropanoic acid]
P50 ([1]; 1 mM RSR-13): 35.1 ± 2.2 mmHg
n50 ([1]; 1 mM RSR-13): 2.4 ± 0.2
ΔP50 ([1]; 1 mM RSR-13): 3.3 mmHg
P50 ([1]; 2 mM RSR-13): 42.0 ± 1.7 mmHg
n50 ([1]; 2 mM RSR-13): 2.0 ± 0.3
ΔP50 ([1]; 2 mM RSR-13): 10.2 mmHg
P50 ([1]; 5 mM RSR-13): 78.0 ± 1.2 mmHg
n50 ([1]; 5 mM RSR-13): 1.8 ± 0.1
ΔP50 ([1]; 5 mM RSR-13): 46.2 mmHg
P50 [2, 10]: 62.3 ± 0.5 mmHg
n50 [2, 10]: 2.2 ± 0.2
ΔP50 [2, 10]: 25.0 mmHg
P50 [2, 11]: 51.3 ± 3.2 mmHg
n50 [2, 11]: 2.2 ± 0.1
ΔP50 [2, 11]: 16.8 mmHg
P50 [2, 12]: 34.5 ± 0.2 mmHg
n50 [2, 12]: 2.6 ± 0.3
ΔP50 [2, 12]: 3.9 mmHg
P50 [2, 13]: 41.5 ± 0.5 mmHg
n50 [2, 13]: 2.3 ± 0.0
ΔP50 [2, 13]: 11.3 mmHg
P50 [2, 14]: 72.1 ± 1.3 mmHg
n50 [2, 14]: 1.9 ± 0.1
ΔP50 [2, 14]: 41.5 mmHg
P50 (HBOC-1 (13.4 g/dL); 2 mM RSR-13): 73.6 ± 3.0 mmHg
n50 (HBOC-1 (13.4 g/dL); 2 mM RSR-13): 1.1 ± 0.3
ΔP50 (HBOC-1 (13.4 g/dL); 2 mM RSR-13): 15.1 mmHg
P50 (HBOC-1 (13.4 g/dL); 5 mM RSR-13): 83.5 ± 3.4 mmHg
n50 (HBOC-1 (13.4 g/dL); 5 mM RSR-13): 1.1 ± 0.3
ΔP50 (HBOC-1 (13.4 g/dL); 5 mM RSR-13): 25 mmHg and 25.0 mmHg
P50 [3, 15]: 74.0 ± 2.1 mmHg
n50 [3, 15]: 1.5 ± 0.1
ΔP50 [3, 15]: 21.2 mmHg
P50 [3, 16]: 68.0 ± 4.2 mmHg
n50 [3, 16]: 1.8 ± 0.3
ΔP50 [3, 16]: 20.5 mmHg
P50 [3, 17]: 75.1 ± 5.6 mmHg
n50 [3, 17]: 1.7 ± 0.1
ΔP50 [3, 17]: 27.6 mmHg
P50 [3, 18]: 61.5 ± 3.6 mmHg
n50 [3, 18]: 2.1 ± 0.1
ΔP50 [3, 18]: 18.1 mmHg
Percentage (%) decrease in absorbance intensity at 417 nm ([4]; 20 uM RSR-13): 3.2 ± 0.4%
Percentage (%) decrease in absorbance intensity at 417 nm ([4]; 100 uM RSR-13): 8.9 ± 0.3%
Percentage (%) decrease in absorbance intensity at 417 nm ([4]; 200 uM RSR-13): 13.2 ± 0.3%
Percentage (%) decrease in absorbance intensity at 417 nm ([4]; 300 uM RSR-13): 16.5 ± 0.4%
Percentage (%) decrease in absorbance intensity at 417 nm ([5]; 20 uM RSR-13): 3.3 ± 0.4%
Percentage (%) decrease in absorbance intensity at 417 nm ([5]; 100 uM RSR-13): 7.9 ± 0.4%
Percentage (%) decrease in absorbance intensity at 417 nm ([5]; 200 uM RSR-13): 14.9 ± 0.3%
Percentage (%) decrease in absorbance intensity at 417 nm ([5]; 300 uM RSR-13): 17.1 ± 0.5%
Percentage (%) decrease in absorbance intensity at 417 nm ([6]; 100 uM RSR-13): 4.7 ± 0.2%
Percentage (%) decrease in absorbance intensity at 417 nm ([6]; 200 uM RSR-13): 6.1 ± 0.3%
Percentage (%) decrease in absorbance intensity at 417 nm ([6]; 300 uM RSR-13): 7.8 ± 0.5%
Percentage (%) decrease in absorbance intensity at 417 nm ([6]; 800 uM RSR-13): 15.5 ± 0.5%
COHb levels ([7]; swine blood hct 30% exposed to CO to ~10% COHb (control 10.2)): 8.5 ± 0.3%
COHb levels ([7]; swine blood hct 30% exposed to CO to ~52% COHb (control 52.4)): 44.2 ± 1.0%
COHb levels [8]: 44.1 ± 0.7%
increase of the P50 of whole blood (whole blood): 10 Torr

HBOC-1: Oxyglobin® from BioPure Inc: highly purified bovine Hb that is crosslinked with gluteraldehyde
P50 [9]: 58.5 mmHg and 58.5 ± 6.9 mmHg
n50 [9]: 1.2 and 1.2 ± 0.3

Reference: patent US20130266668A1, “USE OF HEMOGLOBIN EFFECTORS TO INCREASE THE BIOAVAILABILITY OF THERAPEUTIC GASES” (VIRGINIA COMMONWEALTH UNIVERSITY, priority 2010, published 2013)
